In patent US9815846B2 (Merck Sharp & Dohme Corp., priority 2014, dated 2017) one finds IC50 data, which are given here for 31 compounds.

Each structure is given as a SMILES string.

For orientation: IC50 means the midpoint of a concentration-inhibition curve. Read a low IC50 as greater potency in that assay.

In this experiment the target is human TrkA receptor (Homo sapiens (Human), UniProt P04629). As to the kind of experiment: DiscoverX PathHunter TrkA functional assay (NGF-stimulated U2OS cells). The format is cell-based. The conditions noted are these: U2OS cells expressing human TrkA-PK, Shc1-EA and p75NTR; compound 1 h, then NGF at ~80% of maximal response for 3 h; luminescence.
human TrkA receptor, sequence (P04629 33-796): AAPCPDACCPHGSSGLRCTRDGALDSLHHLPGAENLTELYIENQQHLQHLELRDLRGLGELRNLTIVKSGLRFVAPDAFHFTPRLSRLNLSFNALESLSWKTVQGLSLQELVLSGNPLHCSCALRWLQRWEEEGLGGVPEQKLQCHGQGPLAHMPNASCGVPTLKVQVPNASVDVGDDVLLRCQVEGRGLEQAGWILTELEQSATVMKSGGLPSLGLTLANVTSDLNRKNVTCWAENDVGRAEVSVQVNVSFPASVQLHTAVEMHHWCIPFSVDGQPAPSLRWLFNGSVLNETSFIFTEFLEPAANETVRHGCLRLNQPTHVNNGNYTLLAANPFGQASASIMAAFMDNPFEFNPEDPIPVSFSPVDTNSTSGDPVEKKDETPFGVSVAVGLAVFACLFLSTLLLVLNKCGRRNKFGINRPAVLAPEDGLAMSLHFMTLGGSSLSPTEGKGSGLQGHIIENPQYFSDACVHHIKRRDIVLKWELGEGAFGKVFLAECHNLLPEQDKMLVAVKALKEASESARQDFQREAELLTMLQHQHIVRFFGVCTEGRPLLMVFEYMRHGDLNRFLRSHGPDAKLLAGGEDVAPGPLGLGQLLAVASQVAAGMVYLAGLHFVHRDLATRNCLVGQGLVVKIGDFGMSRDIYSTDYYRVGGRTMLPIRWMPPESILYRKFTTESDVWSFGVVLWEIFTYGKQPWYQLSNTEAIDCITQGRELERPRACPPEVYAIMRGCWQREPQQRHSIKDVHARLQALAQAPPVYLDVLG
The compound `Cn1ccc(-c2cc(C(=O)Nc3cnc(CC(N)=O)cc3-c3ccccc3)c(F)cc2C(F)(F)F)n1` [Example 101, N-(6-(2-Amino-2-oxoethyl)-4-phenylpyridin-3-yl)-2-fluoro-5-(1-methyl-1H-pyrazol-3-yl)-4-(trifluoromethyl)benzamide] returned a concentration for half-maximal inhibition (IC50) of 1.1 nM.

`Cn1ccc(-c2cc(C(=O)Nc3cnc(CN4CC(CO)OC4=O)nc3-c3ccccc3)c(F)cc2C(F)(F)F)n1` (single isomer, unassigned) [Example 228, (R or S)-2-fluoro-N-(2-((5-(hydroxymethyl)-2-oxooxazolidin-3-yl)methyl)-4-phenylpyrimidin-5-yl)-5-(1-methyl-1H-pyrazol-3-yl)-4-(trifluoromethyl)benzamide] had an IC50 of 0.66 nM. Take `Cn1ccc(-c2cc(C(=O)Nc3cc(C(=O)O)cnc3-c3ccccc3)c(F)cc2C(F)(F)F)n1` [Example 81, 5-(2-Fluoro-5-(1-methyl-1H-pyrazol-3-yl)-4-(trifluoromethyl)benzamido)-6-phenylnicotinic acid]: the IC50 stood at 14 nM. With `Cc1cccc(-c2nc(C)ncc2NC(=O)c2ccc(C(F)(F)F)c(-c3ccn(C)n3)c2)c1` [Example 32, N-[2-methyl-4-(3-methylphenyl)pyrimidin-5-yl]-3-(1-methyl-1H-pyrazol-3-yl)-4-(trifluoromethyl)benzamide], inhibition was half-maximal at 8.3 nM (IC50). The compound `NC(=O)Cc1ccc(NC(=O)c2cc(-c3ccccn3)c(C(F)(F)F)cc2F)c(-c2ccccc2)n1` [Example 124, N-(6-(2-amino-2-oxoethyl)-2-phenylpyridin-3-yl)-2-fluoro-5-(pyridin-2-yl)-4-(trifluoromethyl)benzamide] gave an IC50 of 8.8 nM. The result for `Cc1ncc(NC(=O)c2cc(-c3ncccn3)c(C(F)(F)F)cc2F)c(-c2ccccc2)n1` [Example 28, 2-fluoro-N-(2-methyl-4-phenylpyrimidin-5-yl)-5-pyrimidin-2-yl-4-(trifluoromethyl)benzamide] reads 9.6 nM; that for `O=C(Nc1cc(-c2cccnc2)cnc1-c1ccccc1)c1ccc(C(F)(F)F)cc1` [Example 10, N-(6-phenyl-3,3′-bipyridin-5-yl)-4-(trifluoromethyl)benzamide], 1600 nM. `Cn1ccc(-c2cc(C(=O)Nc3cnc(CC(N)=O)nc3-c3ccccc3)ccc2C(F)(F)F)n1` [Example 116, N-(2-(2-amino-2-oxoethyl)-4-phenylpyrimidin-5-yl)-3-(1-methyl-1H-pyrazol-3-yl)-4-(trifluoromethyl)benzamide] had an IC50 of 9.8 nM.

Take `Cn1ccc(-c2cc(C(=O)Nc3cc(C(N)=O)cnc3-c3ccccc3)ccc2C(F)(F)F)n1` [Example 89, 5-(3-(1-methyl-1H-pyrazol-3-yl)-4-(trifluoromethyl)benzamido)-6-phenylnicotinamide]: half-maximal inhibition (IC50) required 1.5 nM.

Consider `Cc1nc(C)c(NC(=O)c2ccc(C(F)(F)F)c(-c3ccn(C)n3)c2)c(-c2ccccc2)n1` [Example 26, N-(2,4-dimethyl-6-phenylpyrimidin-5-yl)-3-(1-methyl-1H-pyrazol-3-yl)-4-(trifluoromethyl)benzamide], for which the IC50 was determined as 210 nM. For `Cc1ccccc1-c1nc(CC(N)=O)ncc1NC(=O)c1cc(-c2ccn(C)n2)c(C(F)(F)F)cc1F` [Example 117, N-(2-(2-amino-2-oxoethyl)-4-(o-tolyl)pyrimidin-5-yl)-2-fluoro-5-(1-methyl-1H-pyrazol-3-yl)-4-(trifluoromethyl)benzamide] the value was 4.9 nM.

Regarding `CN1CCOC(C(=O)NCc2ccc(NC(=O)c3cc(-c4ccn(C)n4)c(C(F)(F)F)cc3F)c(-c3ccccc3)n2)C1` (single isomer, unassigned) [Example 63, (S or R)-N-((5-(2-fluoro-5-(1-methyl-1H-pyrazol-3-yl)-4-(trifluoromethyl)benzamido)-6-phenylpyridin-2-yl)methyl)-4-methylmorpholine-2-carboxamide], the IC50 came to 1.8 nM. The result for `O=C(Nc1cc(OCc2ccncc2)cnc1-c1ccccc1)c1cc(-c2ncccn2)c(C(F)(F)F)cc1F` [Example 176, 2-fluoro-N-(2-phenyl-5-(pyridin-4-ylmethoxy)pyridin-3-yl)-5-(pyrimidin-2-yl)-4-(trifluoromethyl)benzamide] reads 6.3 nM; that for `CN(Cc1ccc(NC(=O)c2cc(-c3ccn(C)n3)c(C(F)(F)F)cc2F)c(-c2ccccc2)n1)C(N)=O` [Example 78, 2-fluoro-5-(1-methyl-1H-pyrazol-3-yl)-N-(6-((1-methylureido)methyl)-2-phenylpyridin-3-yl)-4-(trifluoromethyl)benzamide], 1.1 nM. In turn, `Cc1ncc(NC(=O)c2cc(-c3ccn(C)n3)c(C(F)(F)F)cc2F)c(-c2ccccc2CCN)n1` [Example 134, N-(4-(2-(2-aminoethyl)phenyl)-2-methylpyrimidin-5-yl)-2-fluoro-5-(1-methyl-1H-pyrazol-3-yl)-4-(trifluoromethyl)benzamide] displayed a half-inhibitory concentration (IC50) of 7 nM. The compound `CNC(=O)c1cnc(-c2ccccc2)c(NC(=O)c2cc(-c3ccn(C)n3)c(C(F)(F)F)cc2F)c1` [Example 83, 5-(2-fluoro-5-(1-methyl-1H-pyrazol-3-yl)-4-(trifluoromethyl)benzamido)-N-methyl-6-phenylnicotinamide] had an IC50 of 1.1 nM.

For `Cn1ccc(-c2cc(C(=O)Nc3ccc(CNC(=O)C(O)CO)nc3-c3ccccc3)c(F)cc2C(F)(F)F)n1` (single isomer, unassigned) [Example 62, (S or R)-N-(6-((2,3-dihydroxypropanamido)methyl)-2-phenylpyridin-3-yl)-2-fluoro-5-(1-methyl-1H-pyrazol-3-yl)-4-(trifluoromethyl)benzamide], the half-inhibitory concentration (IC50) is 0.79 nM. For `Cn1ccc(-c2cc(C(=O)Nc3cc(CC(N)=O)cnc3-c3ccccc3)c(F)cc2C(F)(F)F)n1` [Example 202, N-(5-(2-Amino-2-oxoethyl)-2-phenylpyridin-3-yl)-2-fluoro-5-(1-methyl-1H-pyrazol-3-yl)-4-(trifluoromethyl)benzamide] the value was 3.7 nM. For `NC(=O)Cc1cc(-c2ccccc2)c(NC(=O)c2cc(-c3ccccn3)c(C(F)(F)F)cc2F)cn1` [Example 127, N-(6-(2-amino-2-oxoethyl)-4-phenylpyridin-3-yl)-2-fluoro-5-(pyridin-2-yl)-4-(trifluoromethyl)benzamide] the value was 6 nM; for `Cn1ccc(-c2cc(C(=O)Nc3cnc(NCCO)nc3-c3ccccc3)ccc2C(F)(F)F)n1` [Example 210, N-(2-((2-hydroxyethyl)amino)-4-phenylpyrimidin-5-yl)-3-(1-methyl-1H-pyrazol-3-yl)-4-(trifluoromethyl)benzamide], 2.5 nM; for `Cn1ccc(-c2cc(C(=O)Nc3ccc(C4COC(=O)N4)nc3-c3ccccc3)c(F)cc2C(F)(F)F)n1` (single isomer, unassigned) [Example 196, (R or S)-2-Fluoro-5-(1-methyl-1H-pyrazol-3-yl)-N-(6-(2-oxooxazolidin-4-yl)-2-phenylpyridin-3-yl)-4-(trifluoromethyl)benzamide], 0.19 nM. The result for `O=C(Nc1cc2c(nc1-c1ccccc1)CN(C(=O)CO)C2)c1cc(-c2ncccn2)c(C(F)(F)F)cc1F` [Example 162, 2-fluoro-N-(6-(2-hydroxyacetyl)-2-phenyl-6,7-dihydro-5H-pyrrolo[3,4-b]pyridin-3-yl)-5-(pyrimidin-2-yl)-4-(trifluoromethyl)benzamide] reads 180 nM; that for `O=C(Nc1cnc(CO)nc1-c1ccccc1)c1ccc(C(F)(F)F)c(-c2cc[nH]n2)c1` [Example 40, N-(2-(hydroxymethyl)-4-phenylpyrimidin-5-yl)-3-(1H-pyrazol-3-yl)-4-(trifluoromethyl)benzamide], 12 nM; that for `Cn1ccc(-c2cc(C(=O)Nc3cnc(CNC(=O)CO)cc3-c3ccccc3)ccc2C(F)(F)F)n1` [Example 55, N-(6-((2-hydroxyacetamido)methyl)-4-phenylpyridin-3-yl)-3-(1-methyl-1H-pyrazol-3-yl)-4-(trifluoromethyl)benzamide], 14 nM. As for `O=C(Nc1cc2c(nc1-c1ccccc1)C(=O)NC2=O)c1cc(-c2ncccn2)c(C(F)(F)F)cc1F` [Example 185, N-(5,7-Dioxo-2-phenyl-6,7-dihydro-5H-pyrrolo[3,4-b]pyridin-3-yl)-2-fluoro-5-(pyrimidin-2-yl)-4-(trifluoromethyl)benzamide], the IC50 is 18 nM.

Turning to `Cn1ccc(-c2cc(C(=O)Nc3cnc(N)nc3-c3ccccc3)c(F)cc2C(F)(F)F)n1` [Example 212, N-(2-amino-4-phenylpyrimidin-5-yl)-2-fluoro-5-(1-methyl-1H-pyrazol-3-yl)-4-(trifluoromethyl)benzamide], the IC50 came to 2.8 nM. In turn, `Cn1ccc(-c2cc(C(=O)Nc3cnc(CS(C)(=O)=O)nc3-c3ccccc3)c(F)cc2C(F)(F)F)n1` [Example 199, 2-Fluoro-5-(1-methyl-1H-pyrazol-3-yl)-N-(2-((methylsulfonyl)methyl)-4-phenylpyrimidin-5-yl)-4-(trifluoromethyl)benzamide] had an IC50 of 4 nM. For `CC(=O)N1CCc2nc(-c3ccccc3)c(NC(=O)c3ccc(C(F)(F)F)c(-c4ncccn4)c3)cc2C1` [Example 147, N-(6-acetyl-2-phenyl-5,6,7,8-tetrahydro-1,6-naphthyridin-3-yl)-3-(pyrimidin-2-yl)-4-(trifluoromethyl)benzamide] the value was 14 nM. Regarding `Cc1ncc(NC(=O)c2ccc(C(F)(F)F)c(-c3ccn(C)n3)c2)c(-c2cccc(CO)c2)n1` [Example 44, N-(4-(3-(Hydroxymethyl)phenyl)-2-methylpyrimidin-5-yl)-3-(1-methyl-1H-pyrazol-3-yl)-4-(trifluoromethyl)benzamide], the IC50 came out at 20 nM.

For the compound `Cn1ccc(-c2cc(C(=O)Nc3cnc(C4(C(N)=O)CC4)nc3-c3ccccc3)c(F)cc2C(F)(F)F)n1` [Example 119, N-(2-(1-carbamoylcyclopropyl)-4-phenylpyrimidin-5-yl)-2-fluoro-5-(1-methyl-1H-pyrazol-3-yl)-4-(trifluoromethyl)benzamide], the IC50 stood at 7.9 nM. As to `Cn1ccc(-c2cc(C(=O)Nc3cnc(CNC(=O)Cn4cncn4)nc3-c3ccccc3)c(F)cc2C(F)(F)F)n1` [Example 68], the IC50 came out at 0.4 nM.
